How the values were obtained:
[1] = test system: mice; assay: Protection against hypobaric hypoxia in mice (survival time); assay type: in vivo; details: for activity in the hypobaric hypoxia model (in words): dose of 25 mg/kg, listed in decreasing order of activity
Procedure: The apparatus used consisted of two chambers A and B connected by a three-way valve. […] The air in chamber A was evacuated to a pressure of 100 mm Hg. The three way valve was turned to disconnect chamber B from room air and to connect it to chamber A. At this point, the pressure in B fell to 200 mm Hg. Survival of residing mice was determined up to a maximum exposure of 15 minutes, and is defined as the time between onset of hypoxia to cessation of respiration.

[2] = test system: guinea-pig ileal preparation; assay: Decrease of contractile response to intramural electric stimulation in the guinea-pig ileal preparation; details: Cavia porcellus; calculated from logit plot; contractile response to intramural electric stimulation; read-out: EC50
Procedure: A 2 cm-long section of the distal ileum freshly dissected from a CO2-asphyxiated guinea pig is cleaned from adhering tissue and mounted in an organ bath (5 mL) containing Krebs solution constantly aerated with oxygen containing 5% CO2. The initial tension is adjusted at 5 g per strip. Tension is monitored isometrically with a Grass FTC3 force transducer. Intramural electric stimulation is delivered through a platinum electrode from a Grass stimulator model s88, s44 at supramaximal voltage (V) and a frequency of 0.1/s. The preparation develops a rhythmic contractile response at maximal amplitude which is stable over time. Addition of test drugs to the organ bath causes a dose-dependent decrease in contraction amplitude which is stable over 5-8 minutes. The relative decrease in contractile response indicates the relative potency of a given agent in a series.
Blocking or decreasing neural excitability evoked by programmed electric stimulation is another indicator of a compound's potential neuroprotective activity. A convenient test system uses the guinea-pig ileal preparation mounted in an organ bath (see, for example, Eiichi Hayashi et al., European J. Pharmacol 48, 297-307, 1978).

[3] = test system: guinea-pig ileal preparation; assay: Decrease in contractile response of guinea-pig ileum evoked by the nicotinic agonist DMPP; details: Cavia porcellus; calculated from logit plot; inhibiting contractile response to 1 uM DMPP; read-out: EC50
Procedure: A strip of guinea-pig ileum is mounted in an organ bath, as described in EXAMPLE 10. 1-N,N-dimethyl-4-N-phenylpiperazinium chloride (DMPP) is added at intervals of about 15 minutes in order of increasing dose, to cause bath concentrations in the range of 0.1-10 uM. A brief contraction follows each addition. The amplitude of the contractile response is used to derive a dose-response relationship for DMPP. Usually, a bath concentration of 1 uM DMPP will give 90-100% of the maximal response obtainable in the given preparation. One of two procedures follows this: A dose-response of a test compound is determined in the presence of a fixed concentration of DMPP. This is done by incubating the preparation with a given concentration of the test compound, then challenging it with DMPP at a dose to give 1 uM bath concentration. The procedure is repeated with the next higher concentration of the test compound. In the other procedure, the dose-response of DMPP is determined in the presence of a fixed bath concentration of the test compound, usually 200 uM.
When intramural nerve stimulation occurs, as in the case of electrical stimulation, the contractile effector substance is released from nerve endings by a depolarization wave that propagates along the parasympathetic nerve fiber until its junction with smooth muscle of the ileum. An alternative but not equivalent procedure is stimulation of parasympathetic ganglia by an appropriate nicotinic agonist such as 1-N,N-dimethyl-4-N-phenylpiperazinium chloride (DMPP). Stimulation of parasympathetic ganglia causes a depolarization wave in the post-ganglionic nerve fiber which terminates on the smooth muscle of the ileum, causing release of contractile effector and contraction (see, for example, E. S. Vizi, Acetylcholine release from guinea-pig ileum by parasympathetic ganglion stimulants and gastrin-like polypeptides, Br. J. Pharmacol. 47, 765-77. 1973).

[4] = test system: guinea-pig ileal preparation; assay: Potentiation of adenosine depression of contractile response, procedure I (in the presence of test compound); details: adenosine 0.4 uM; drug conc. range (uM): 3, 20-400; 5, 50-200; 6, 25-50; drug present
Procedure: (§1) The test system used is the intramural electrically-stimulated guinea-pig ileal preparation as described in EXAMPLE 10. Adenosine added to the organ bath in rising concentrations in the range 0.1-10 uM causes a dose-dependent decrease in contraction amplitude, with an EC50 of about 1 uM.
In procedure I, the effect of a given concentration of adenosine, usually, 0.2 or 0.4 uM was first determined and related to the full contractile response in the absence of adenosine. […] The amplitude of the contractile response was recorded. Now, adenosine was added at the same dose initially used, and the effect of adenosine in the presence of the test compound was recorded.
(§2) The calculated effect is the product of the responses to each of the two agents when applied separately. The potentiation ratio is defined as (100%found)/(100-% calculated).

[5] = test system: guinea-pig ileal preparation; assay: Potentiation of adenosine depression of contractile response, procedure II (after exposure to and washout of test compound); details: for Mean potentiation ratio ± SEM / potentiation ratio, Max / potentiation ratio, Min: adenosine 0.4 uM, after exposure and washout, 5, 50-400, 6, 50-400; for Mean potentiation ratio ± SEM: drug conc. (uM): 3, 100-400, 2a, 1000, 2, 1000; for potentiation ratio, Max / potentiation ratio, Min: drug conc. range (uM): 3, 100-400; for potentiating effect retained after wash-out from the organ bath (in words): guinea pig ileal preparation after wash-out
Procedure: as §1, §2
In all cases, the difference between the calculated and observed response was statistically significant. […] In procedure II, the dose response to adenosine was determined before and after exposure of the preparation to the test drug and washout of the test drug from the organ bath. In this case, significant potentiation of adenosine was observed even though the test drug had been washed out from the organ bath. In fact, the potentiation ratio, as defined earlier, was even higher than found in the presence of the test compounds (Procedure I), reaching very high values.

[6] = test system: Male ICR mice; assay: Protection against maximal electroshock-induced seizure in mice (MES); assay type: in vivo; details: for protected/total: electroshock 30 min after medication; for ED50: Mus musculus, median effective dose, maximal electroshock, mice, ip, read-out: ED50 (95% confidence limits)
Procedure: Male ICR mice were used. The rodent shocker apparatus consisted of a shock stimulator Type 221 (Hugo Sachs Elektronik, Germany) with a current setting for mice. Thirty minutes after medication with a given agent, given intraperitoneally as a fine slurry in methyl cellulose 0.5% in distilled water, each mouse received an electroshock of 50 mA for 0.2 seconds, applied to the eye, at a maximum of 250 V/300 mA. The ratio of mice protected against seizure in a group of four per dose was determined and used as an indicator of neuroprotective activity.
Protection of mice against seizures induced by electroshock is a widely used model to probe for potential anti-epileptic agents (see, for example, Y. I. Sohn et al., Anticonvulsant properties of diphenylthiohydantoin, Arch. Int. Pharmacodyn. 188, 284-289, 1970).

[7] = Mus musculus, ip, mice, 200 mm Hg, read-out: survival ± SD (survival time as percent of vehicle control)

Row | SMILES | response vs control in vivo at 12.5 mg/kg ([1]; Mus musculus, 12.5 mg/kg, ip, mice, 200 mm Hg, read-out: survival ± SD (survival time as percent of vehicle control)) [%] | response vs control in vivo at 25 mg/kg [1, 7] [%] | response vs control in vivo at 50 mg/kg [1, 7] [%] | response vs control in vivo at 100 mg/kg [1, 7] [%] | activity in the hypobaric hypoxia model (in words) [1] | EC50 [2] [µM] | EC50 [3] [µM] | Mean potentiation ratio ± SEM [4] | potentiation ratio, Max [4] | potentiation ratio, Min [4] | Mean potentiation ratio ± SEM [5] | potentiation ratio, Max [5] | potentiation ratio, Min [5] | potentiating effect retained after wash-out from the organ bath (in words) [5] | protected/total ([6]; 50 mg/kg intraperitoneally) | protected/total ([6]; 75 mg/kg intraperitoneally) | protected/total ([6]; 100 mg/kg intraperitoneally) | ED50 [6] [mg/kg] | rate of restoration of the original response to adenosine after washout ([5]; after exposure to and washout of the potentiating agent)
1 | O=CNC1=CCc2ccccc21 [Compound 5, N-Formyl-3-amino-1H-indene] | 248 ± 154 | 586 ± 253 | 331 ± 272 | 489 ± 286 | strong activity | 188 | 34 | 2.19 ± 0.36 | 2.60 | 1.47 | 5.55 ± 1.0 | 7.28 | 3.78 | prolonged potentiating effect | 0/4 | 1/4 | 4/4 | 79.4 | –
2 | CC(=O)NC1=CCc2cc(Cl)ccc21 [Compound 6, N-Acetyl-3-amino-6-chloro-1H-indene] | – | 393 ± 110 | 234 ± 120 | 294 ± 267 | strong activity | 133 | 27 | 1.93 ± 0.39 | 2.32 | 1.54 | 8.82 ± 1.2 | 12.28 | 6.86 | prolonged potentiating effect | 2/4 | – | 4/4 | 50 | slowest
